Values quoted from earlier work, collected in US8555875B2, “Inhalation devices and related methods for administration of sedative hypnotic compounds” (Map Pharmaceuticals, Inc., priority 2008, dated 2013).

Experiments:
[1] = in vivo
[2] = in vivo; remark: listed apart in the source
[3] = system: melatonin receptor MT1/MT2; settings: metabolite MII versus ramelteon

SMILES | Duration of Action [1] [h] | Half Life [2] [h] | mean functional activity, times lower potency than ramelteon [3] [times]
CN1CCN(C(=O)OC2c3nccnc3C(=O)N2c2ccc(Cl)cn2)CC1 (single isomer, unassigned) [Eszopiclone, 6-(5-chloro-2-pyridyl)-5[(4-methyl-1-piperazinyl)carbonyloxy]-7-oxo-6,7-di hydro-5H-pyrrolo[3,4-b]pyrazine] | 8 | 6 | –
Cc1nnc2n1-c1ccc(Cl)cc1C(c1ccccc1)=NC2 [Alprazolam] | <6 | 9 to 14 | –
CNC1=Nc2ccc(Cl)cc2C(c2ccccc2)=[N+]([O-])C1 [Chlordiazepoxide] | – | 7 to 13 | –
O=C1CN=C(c2ccccc2Cl)c2cc([N+](=O)[O-])ccc2N1 [Clonazepam] | 24 to 28 | 18 to 28 | –
CN1C(=O)CN=C(c2ccccc2)c2cc(Cl)ccc21 [Diazepam] | 24 to 28 | – | –
CCN(CC)CCN1C(=O)CN=C(c2ccccc2F)c2cc(Cl)ccc21 [Flurazepam] | 24 to 28 | 50 to 100 | –
O=C1Nc2ccc(Cl)cc2C(c2ccccc2Cl)=NC1O (centres unmarked) [Lorazepam] | 12 to 18 | 9 to 19 | –
CN1C(=O)C(O)N=C(c2ccccc2Cl)c2cc(Cl)ccc21 (centres unmarked) [Lormetazepam] | 12 to 18 | 10 | –
CC(O)C(=O)NCCC1CCc2ccc3c(c21)CCO3 (centres unmarked) [MII] | – | – | 21
Cc1ncc2n1-c1ccc(Cl)cc1C(c1ccccc1F)=NC2 [Midazolam] | 4 | 1.3 to 2.5 | –
O=C1CN=C(c2ccccc2)c2cc([N+](=O)[O-])ccc2N1 [Nitrazepam] | 24 | 28 | –
CN1C(=O)C(O)N=C(c2ccccc2)c2cc(Cl)ccc21 (centres unmarked) [Temazepam] | 12 to 18 | – | –
Cc1nnc2n1-c1ccc(Cl)cc1C(c1ccccc1Cl)=NC2 [Triazolam] | <6 | 2 to 4 | –
Cc1ccc(-c2nc3ccc(C)cn3c2CC(=O)N(C)C)cc1 [Zolpidem] | <4 | – | –
